Values quoted from earlier work as cited in PMC3598812, “Evaluation of Anti-Hyperalgesic and Analgesic Effects of Two Benzodiazepines in Human Experimental Pain: A Randomized Placebo-Controlled Study” (PLoS ONE, 2013).

Experiments:
healthy male subjects = tested on: healthy male subjects; parameters: method as in PMID 19038771; conditions: capsaicin model, previous study; standard deviation 11.54; cited from earlier work
[1] = trial protocol, cited from earlier work
patients / volunteers = conditions: placebo-controlled, double-blind trial, 114 outpatients with anxiety; mean doses 59 mg clobazam daily, 25 mg diazepam daily; ref Micromedex 2009; cited from earlier work

For `CC(C)C[C@H](CN)CC(=O)O` [pregabalin], the “Reduction in the area of hyperalgesia” value (healthy male subjects) is given as 10.91 cm^2.
For `CCOC(=O)c1ncn2c1CN(C)C(=O)c1cc(F)ccc1-2` [Flumazenil], the t1/2 ([1]; iv) is listed as “about 50 minutes”.
For `O=C1CC(=O)N(c2ccccc2)c2cc(Cl)ccc2N1` [N-desmethylclobazam], the “Half life (t1/2)” value ([1]; drug background) is given as 50 h.
For `CN1C(=O)CN=C(c2ccccc2)c2cc(Cl)ccc21` [diazepam], the “Dizziness, share of treated patients” value (patients / volunteers) is listed as 11% and the “Sedation, share of treated patients” value (patients / volunteers) is listed as 44%.
